Legend:
[1] = biological target: Sterol 14-alpha demethylase (Trypanosoma cruzi (strain CL Brener), UniProt Q7Z1V1); test: GSK_TCAKS: pIC50 CYP51 from Trypanosoma cruzi.; type: functional
[2] = tested on: Leishmania donovani; test: (§1) GSK_TCAKS: pIC50 Leishmania donovani Imaging: THP-1 Host Macrophages. Assay plates (384-well) were prepared by adding 250nL of compound to each well. For single shot assay, the final compound concentration was 5 uM. […] Automated image analysis was performed with a script developed on Acapella High Content Imaging and Analysis Software (PerkinElmer). Output: THP-1 cell count were reported for each well.; type: functional, organism-based, Homo sapiens
[3] = tested on: Trypanosoma cruzi; test: (§2) GSK_TCAKS: pIC50 H2C9 Imaging: H9c2 Host Cardiomyocytes. […] Cells were then washed once with PBS before infection. T. cruzi trypomastigotes, collected at days 5 to 8 after infection from LLC-MK2 parasite infected cultures, were allowed to swim out for 4h at 37C from a centrifuged pellet (2,500 rpm/10 min/room temperature). Trypomastigotes were then collected and counted in a CASY Cell Counter. Trypomastigotes, in supplemented DMEM, were added to H9c2 cultures in a multiplicity of infection of 1 and incubated for 18 h. Cells were washed once with PBS before incubation of the infected H9c2 monolayer with trypsin (Life-Technologies) to detach cells from the flask. Cells were counted in a CASY Cell Counter using a 150 um capillary and their density set at 5 * 10^4 cells per mL in supplemented assay DMEM. Infected H9c2 were dispensed into 384-well poly-lysine coated assay plates at 50uL per well using a Multidrop Combi dispenser. After seeding them, the plates were incubated at 37C, 5% CO2 for 72h. Cultures were then fixed and stained by addition of 50 uL of a solution containing 8% formaldehyde and 4 uM DRAQ5 DNA dye (BioStatus, UK) per well. […] Five images were collected per well for reliable statistical analysis. Automated image analysis was performed with a script developed on Acapella High Content Imaging and Analysis Software (PerkinElmer). Output: Number of H9c2 Host Cardiomyocytes nuclei to determine drug-related cytotoxicity.; type: functional, organism-based, Rattus norvegicus; conditions: H9c2, 4 h
[4] = tested on: Leishmania donovani; test: as §1, with “Amastigotes/Macrophages.” for “THP-1 Host Macrophages.”, “Average number of amastigotes per macrophage” for “THP-1”, “cell” for “cell count”; type: functional, organism-based, Homo sapiens; conditions: THP-1
[5] = tested on: Trypanosoma cruzi; test: as §2, with “Trypanosoma cruzi” for “H2C9”, “Infected Cells.” for “H9c2 Host Cardiomyocytes.”, “percentage” for “Number”, “infected cells per well as a second infection marker.” for “H9c2 Host Cardiomyocytes nuclei to determine drug-related cytotoxicity.”; type: functional, organism-based, Rattus norvegicus; conditions: H9c2, 4 h
[6] = tested on: Leishmania donovani; test: GSK_TCAKS: pIC50 Leishmania donovani viability assay using fluorescence intensity. Assay plates (1536-well) were prepared by adding 30nL per well of compound. For single shot assay, the final compound concentration was 5uM. […] Briefly, eGFP LdBOB axenic amastigotes were harvested, fixed and counted in a CASY cell counter (Roche-Applied Science). A final concentration of 1.5 * 10^5 cells per well were prepared in amastigote media containing 500 U/mL penicillin/streptomycin (Invitrogen) and 6uL was dispensed to each experimental well using a Multidrop Combi dispenser (Thermo Scientific). 6uL of assay media was dispensed to control columns used as reference for 100% compound response. Following incubation for 72 h at 37C, 5% CO2, 2 uL of resazurin was added to each well at a final concentration of 0.5 mM in phosphate buffered saline (PBS) with IGEPAL (Sigma-Aldrich), 0.05% (v/v).; type: functional, organism-based
[7] = GSK_TCAKS: pIC50 HepG2 human cell line viability assay using luminiscence. […] Seeding density was checked to ensure that new mono-layers were not more than 50% confluent at the time of harvesting. Cell suspension was added to 500 mL of the same medium at a final density of 1.2 * 10^5 cells/mL. This cell suspension was dispensed (25 uL, 3000 cells per well) into 384-well clear-bottom plates using a Multidrop Combi dispenser. Prior to addition of the cell suspension, the screening compounds (250 nL) were pre-dispensed into the plates with an Echo liquid handler. Plates were incubated for 48 h at 37C, 5% CO2. After incubation, plates equilibrated at room temperature for 30 min before proceeding to develop the luminescent signal. The signal developer, CellTiter-Glo Reagent, was allowed to equilibrate at room temperature for 30 min and added to the plates (25uL per well) using a Multidrop Combi dispenser. Plates were left for 10 min at room temperature for stabilization and then read using a ViewLux.; type: toxicity, cell-based
[8] = tested on: Trypanosoma cruzi; test: as §2, with “Trypanosoma cruzi” for “H2C9”, “Amastigotes/Cell.” for “H9c2 Host Cardiomyocytes.”, “number” for “Number”, “amastigotes per cell as infection level measurement.” for “H9c2 Host Cardiomyocytes nuclei to determine drug-related cytotoxicity.”; type: functional, organism-based, Rattus norvegicus; conditions: H9c2, 4 h
[9] = tested on: Trypanosoma brucei brucei; test: GSK_TCAKS: pIC50 Trypanosoma brucei viability assay using fluorescence intensity. Assay plates (1536-well) were prepared by dispensing 25nL of compound solution per well using an Echo acoustic dispenser (Labcyte).; type: functional, organism-based; conditions: Lister 427, 2 h
[10] = tested on: Leishmania donovani; test: as §1, with “Infected” for “THP-1 Host”, “Percent of infected macrophage cells” for “THP-1 cell count”; type: functional, organism-based, Homo sapiens; conditions: THP-1
[11] = tested on: Trypanosoma cruzi; test: GSK_TCAKS: pIC50 Trypanosoma cruzi viability assay using beta-GAL activity. This assay was run at single shot at 5uM compound concentration per well. The biological reagents consisted of NIH-3T3 host cells and trypomastigotes parasitic cells; both cell types were set to a 3.3 * 10^5 cells/mL dilution in assay DMEM by means of a CASY cell counter device using a 60um capillary. 6 uL of the mixture were dispensed per well (about 1 * 10^3 host-cells and 1 * 10^3 parasites) with a Multidrop Combi dispenser. […] In all wells, the percentage of DMSO never exceeded 0.5%. Plates incubated for four days at 37C, 5% CO2. The substrate used for the assay fluorescence intensity (FLINT) readout was resorufin-beta-D-galactopiranoside (Sigma-Aldrich) at 5uM per well. It was diluted in PBS supplemented with the soft detergent Igepal (Fluka).; type: functional, organism-based, Mus musculus; conditions: Tulahuen, NIH3T3
[12] = tested on: Trypanosoma brucei brucei; test: GSK_TCAKS: pIC50 Trypanosoma brucei viability assay using luminiscence. Assay plates (1536-well) were prepared. T. brucei cultures were harvested and counted in a CASY cell counter. A parasite suspension was prepared at a final concentration of 5 * 10^4 cells/mL in complete HMI9 medium and 6uL was dispensed to all wells containing compounds using a Multidrop Combi dispenser. 6uL of HMI9 media with 0.4% DMSO were dispensed to control columns. Plates were incubated for 24 h at 37C, 5% CO2 then tempered for 10 min at room temperature. ATP content was quantified by adding 4 uL of CellTiter-Glo Reagent (Promega) according to the manufacturer's instructions. Luminescence was measured using a ViewLux.; type: functional, organism-based; conditions: Lister 427, CASY

Sterol 14-alpha demethylase, sequence (Q7Z1V1 whole entry): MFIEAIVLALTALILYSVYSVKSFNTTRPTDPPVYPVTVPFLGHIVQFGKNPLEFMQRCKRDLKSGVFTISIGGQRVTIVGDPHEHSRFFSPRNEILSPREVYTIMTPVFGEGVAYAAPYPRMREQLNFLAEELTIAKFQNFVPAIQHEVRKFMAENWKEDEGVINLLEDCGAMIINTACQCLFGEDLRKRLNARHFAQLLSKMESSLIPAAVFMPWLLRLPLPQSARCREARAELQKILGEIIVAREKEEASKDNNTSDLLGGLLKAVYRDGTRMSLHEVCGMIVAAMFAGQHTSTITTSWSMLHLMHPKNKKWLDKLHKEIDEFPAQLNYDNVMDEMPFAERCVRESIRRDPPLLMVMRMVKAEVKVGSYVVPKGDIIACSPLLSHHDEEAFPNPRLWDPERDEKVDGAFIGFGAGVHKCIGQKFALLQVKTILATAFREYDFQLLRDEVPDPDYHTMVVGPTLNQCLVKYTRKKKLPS

SMILES | IC50 [1] | IC50 [2] | IC50 [3] | IC50 [4] | IC50 [5] | IC50 [6] | IC50 at 48 h [7] | IC50 [8] | IC50 [9] | IC50 [10] | IC50 [11] | IC50 [12]
O=C(Nc1nc(-c2ccccn2)cs1)N1C[C@H]2C[C@@]2(c2ccccc2)C1 | 39.8 µM | 7.94 µM | 0.794 µM | 0.398 µM | 0.501 µM | 2 µM | 25.1 µM | 0.251 µM | 0.501 µM | 0.501 µM | 0.501 µM | 0.631 µM
CN(C)S(=O)(=O)c1cccc(C(=O)Nc2nc(-c3ccccn3)cs2)c1 | 31.6 µM | 7.94 µM | 7.94 µM | 2.51 µM | 1.58 µM | 1.26 µM | > 100 µM | 1 µM | 0.501 µM | 6.31 µM | 1.26 µM | 0.631 µM
O=C(CCCNC(=O)c1ccc(Cl)cc1)Nc1nc(-c2ccccn2)cs1 | 3.16 µM | > 50.1 µM | 25.1 µM | 3.16 µM | 25.1 µM | > 50.1 µM | > 100 µM | 10 µM | 7.94 µM | 5.01 µM | 6.31 µM | 12.6 µM
CCCNC(=O)Nc1cccc(-c2nc3ncccc3o2)c1 | > 100 µM | 20 µM | 25.1 µM | 15.8 µM | 3.98 µM | 3.16 µM | > 100 µM | 3.16 µM | 0.501 µM | 12.6 µM | 2.82 µM | 1 µM
CN(C)c1ccc(N)cc1CN(CC1CCCO1)S(C)(=O)=O (stereo not drawn) | > 100 µM | > 50.1 µM | > 50.1 µM | 10 µM | > 50.1 µM | 3.98 µM | > 100 µM | > 50.1 µM | > 39.8 µM | 12.6 µM | > 50.1 µM | > 39.8 µM
COc1ccc(C2CC(c3ccccc3Cl)=NN2C(=O)CNC(=O)C2CCCC2)cc1 (stereo not drawn) | 63.1 µM | > 50.1 µM | > 50.1 µM | > 50.1 µM | 3.16 µM | > 50.1 µM | > 100 µM | 2 µM | 0.631 µM | > 50.1 µM | 3.55 µM | 0.794 µM
Cc1nc2c(-c3cccs3)c(C)nn2c(NCCO)c1C | > 100 µM | > 50.1 µM | > 50.1 µM | > 50.1 µM | 31.6 µM | > 50.1 µM | > 100 µM | 15.8 µM | 0.126 µM | > 50.1 µM | 39.8 µM | 0.2 µM
O=C(Nc1ccc(C(F)(F)F)cc1)NC1(C(=O)NCc2ccco2)CCCCC1 | > 31.6 µM | 31.6 µM | > 50.1 µM | > 50.1 µM | > 50.1 µM | 39.8 µM | > 100 µM | > 50.1 µM | 0.794 µM | > 50.1 µM | 7.94 µM | 1 µM
CCN(CC)c1nc(Nc2ccncc2)nc2ccccc12 | > 100 µM | 25.1 µM | 7.94 µM | 2 µM | 0.0794 µM | 0.794 µM | 50.1 µM | 0.00501 µM | 2.51 µM | 6.31 µM | 0.126 µM | 5.01 µM

Source: ChEMBL document CHEMBL3430912, “GSK Tres Cantos Anti-Kinetoplastid Screening (TCAKS) Data”
